32 compounds from patent publication US10246451B2, “Propionic acid derivatives and methods of use thereof” (Aviara Pharmaceuticals, Inc., priority 2017, dated 2019) can be followed below.

One may read the IC50 as the point on the concentration scale where inhibition reaches its midpoint. Higher therefore signals a need for much substance.

Structures are written as SMILES.

The test deals with α4β1 integrin (Homo sapiens, UniProt P05556+P13612). The test is described as follows: a4b1 IC50 (inhibition of α4β1 integrin; no method described). Type of test: binding.
Sequence of α4β1 integrin (P13612 34-1032): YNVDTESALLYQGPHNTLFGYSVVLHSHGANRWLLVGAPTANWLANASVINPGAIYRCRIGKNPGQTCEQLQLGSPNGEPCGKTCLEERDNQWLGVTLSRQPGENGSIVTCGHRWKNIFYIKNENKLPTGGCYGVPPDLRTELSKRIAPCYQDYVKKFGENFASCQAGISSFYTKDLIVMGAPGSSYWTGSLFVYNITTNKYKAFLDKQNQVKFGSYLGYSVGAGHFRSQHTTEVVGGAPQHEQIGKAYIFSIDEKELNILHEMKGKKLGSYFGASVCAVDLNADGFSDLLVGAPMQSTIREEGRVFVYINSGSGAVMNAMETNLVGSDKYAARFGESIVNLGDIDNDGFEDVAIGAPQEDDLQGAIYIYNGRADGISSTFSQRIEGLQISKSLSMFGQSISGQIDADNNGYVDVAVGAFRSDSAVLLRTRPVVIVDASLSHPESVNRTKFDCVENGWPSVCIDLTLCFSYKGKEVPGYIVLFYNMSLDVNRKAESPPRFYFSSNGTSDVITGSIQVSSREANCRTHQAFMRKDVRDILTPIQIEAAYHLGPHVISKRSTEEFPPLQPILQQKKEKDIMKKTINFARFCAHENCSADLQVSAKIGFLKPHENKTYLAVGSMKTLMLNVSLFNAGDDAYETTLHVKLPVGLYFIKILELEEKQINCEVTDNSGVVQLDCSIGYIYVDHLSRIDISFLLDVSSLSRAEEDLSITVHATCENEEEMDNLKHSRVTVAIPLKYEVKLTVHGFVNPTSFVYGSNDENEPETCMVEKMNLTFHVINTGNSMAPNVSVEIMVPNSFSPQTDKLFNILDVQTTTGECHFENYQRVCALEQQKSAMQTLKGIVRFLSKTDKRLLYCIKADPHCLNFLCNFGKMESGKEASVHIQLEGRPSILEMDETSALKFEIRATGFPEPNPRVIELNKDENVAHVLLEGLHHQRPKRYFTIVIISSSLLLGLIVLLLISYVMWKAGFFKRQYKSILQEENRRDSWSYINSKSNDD
Sequence of α4β1 integrin (P05556 21-798): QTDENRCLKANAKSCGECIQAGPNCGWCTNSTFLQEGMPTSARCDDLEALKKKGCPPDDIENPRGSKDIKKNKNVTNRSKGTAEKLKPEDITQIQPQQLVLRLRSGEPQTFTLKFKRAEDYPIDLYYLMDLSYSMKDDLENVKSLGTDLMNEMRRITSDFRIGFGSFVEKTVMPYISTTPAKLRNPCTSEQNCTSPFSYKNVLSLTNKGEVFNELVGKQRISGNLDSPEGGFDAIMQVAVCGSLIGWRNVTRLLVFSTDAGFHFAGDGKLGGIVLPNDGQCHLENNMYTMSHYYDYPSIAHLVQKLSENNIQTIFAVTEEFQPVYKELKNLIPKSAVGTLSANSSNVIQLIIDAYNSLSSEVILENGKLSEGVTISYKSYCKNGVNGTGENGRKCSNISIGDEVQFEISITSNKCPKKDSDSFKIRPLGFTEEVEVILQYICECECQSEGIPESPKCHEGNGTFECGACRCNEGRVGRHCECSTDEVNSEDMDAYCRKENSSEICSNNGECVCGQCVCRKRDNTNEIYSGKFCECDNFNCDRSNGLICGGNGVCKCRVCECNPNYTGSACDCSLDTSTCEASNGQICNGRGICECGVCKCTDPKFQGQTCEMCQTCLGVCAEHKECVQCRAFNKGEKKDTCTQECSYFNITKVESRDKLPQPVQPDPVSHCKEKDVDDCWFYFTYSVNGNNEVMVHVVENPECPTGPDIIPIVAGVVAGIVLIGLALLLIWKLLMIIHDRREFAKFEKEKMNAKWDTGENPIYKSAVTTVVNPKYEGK
Take `Cc1cn(C)c(=O)c(NC(=O)NC(CC(=O)O)c2cccc(Cc3ccc(Cl)cc3)c2)c1O` (centres unmarked) [Compound 1-26, sodium 3-(3-(4-chlorobenzyl)phenyl)-3-(3-(1,5-dimethyl-4-oxido-2-oxo-1,2-dihydropyridin-3-yl)ureido)propanoate]: the IC50 is over 200 nM.

`Cn1ccc(O)c(NC(=O)N[C@@H](CC(=O)O)c2cccc(Cc3ccccc3C(F)(F)F)c2)c1=O` [Compound 3-88, sodium (S)-3-(3-(1-methyl-4-oxido-2-oxo-1,2-dihydropyridin-3-yl)ureido)-3-(3-(2-(trifluoromethyl)benzyl)phenyl)propanoate] yielded an IC50 of under 20 nM.

`Cn1ccc(O)c(NC(=O)N[C@@H](CC(=O)O)c2cccc(Cc3ccc(C(F)(F)F)cc3)c2)c1=O` [Compound 3-90, sodium (S)-3-(3-(1-methyl-4-oxido-2-oxo-1,2-dihydropyridin-3-yl)ureido)-3-(3-(4-(trifluoromethyl)benzyl)phenyl)propanoate]: the IC50 is under 20 nM.

Compound `Cn1ccc(O)c(NC(=O)N[C@@H](CC(=O)O)c2cccc(Cc3ccccc3OC(F)F)c2)c1=O` [Compound 3-91, sodium(S)-3-(3-(2-(difluoromethoxy)benzyl)phenyl)-3-(3-(1-methyl-4-oxido-2-oxo-1,2-dihydropyridin-3-yl)ureido) propanoate] yielded an IC50 of under 20 nM.

The compound `Cc1ccc(Cc2cccc([C@H](CC(=O)O)NC(=O)Nc3c(O)c(C)cn(C)c3=O)c2)cc1` [Compound 1-30, sodium (S)-3-(3-(1,5-dimethyl-4-oxido-2-oxo-1,2-dihydropyridin-3-yl)ureido)-3-(3-(4-methylbenzyl)phenyl)propanoate] yielded an IC50 of under 200 nM.

The compound `Cc1ccccc1Cc1ccc([C@H](CC(=O)O)NC(=O)Nc2c(O)ccn(C)c2=O)s1` [Compound 3-95, sodium (S)-3-(3-(1-methyl-4-oxido-2-oxo-1,2-dihydropyridin-3-yl)ureido)-3-(5-(2-methylbenzyl)thiophen-2-yl)propanoate] had an IC50 of under 20 nM.

In turn, `Cc1ccccc1Cc1ccc([C@H](CC(=O)O)NC(=O)Nc2c(O)ccn(C)c2=O)cc1` [Compound 3-77, sodium (S)-3-(3-(1-methyl-4-oxido-2-oxo-1,2-dihydropyridin-3-yl)ureido)-3-(4-(2-methylbenzyl)phenyl)propanoate] came in with a half-inhibitory concentration (IC50) of under 200 nM.

Take `COc1ccccc1Oc1ccc([C@H](CC(=O)O)NC(=O)Nc2c(O)cc(C)n(C)c2=O)cc1` [Compound 2-11, sodium (S)-3-(3-(1,6-dimethyl-4-oxido-2-oxo-1,2-dihydropyridin-3-yl)ureido)-3-(4-(2-methoxyphenoxy)phenyl)propanoate]: the IC50 was under 200 nM.

`Cc1cccc(C)c1Cc1cccc([C@H](CC(=O)O)NC(=O)Nc2c(O)ccn(C)c2=O)c1` [Compound 3-94, sodium (S)-3-(3-(2,6-dimethylbenzyl)phenyl)-3-(3-(1-methyl-4-oxido-2-oxo-1,2-dihydropyridin-3-yl)ureido)propanoate] gave an IC50 of under 20 nM.

Compound `COc1cccc(Oc2ccc([C@H](CC(=O)O)NC(=O)Nc3c(O)cc(C)n(C)c3=O)cc2)c1` [Compound 2-12, sodium (S)-3-(3-(1,6-dimethyl-4-oxido-2-oxo-1,2-dihydropyridin-3-yl)ureido)-3-(4-(3-methoxyphenoxy)phenyl)propanoate] yielded an IC50 of under 200 nM.

The compound `Cc1cccc(Cc2cccc([C@H](CC(=O)O)NC(=O)Nc3c(O)ccn(C)c3=O)c2)c1` [Compound 3-83, sodium (S)-3-(3-(1-methyl-4-oxido-2-oxo-1,2-dihydropyridin-3-yl)ureido)-3-(3-(3-methylbenzyl)phenyl)propanoate] came in with an IC50 of under 200 nM.

On to `Cc1cccc(Cc2cccc([C@H](CC(=O)O)NC(=O)Nc3c(O)c(C)cn(C)c3=O)c2)c1` [Compound 1-29, sodium (S)-3-(3-(1,5-dimethyl-4-oxido-2-oxo-1,2-dihydropyridin-3-yl)ureido)-3-(3-(3-methylbenzyl)phenyl)propanoate], for which the IC50 is under 200 nM.

`CCc1ccccc1Cc1cccc([C@H](CC(=O)O)NC(=O)Nc2c(O)ccn(C)c2=O)c1` [Compound 3-80, sodium (S)-3-(3-(2-ethylbenzyl)phenyl)-3-(3-(1-methyl-4-oxido-2-oxo-1,2-dihydro-pyridin-3-yl)ureido)propanoate] registered an IC50 of under 20 nM.

Regarding `Cn1ccc(O)c(NC(=O)N[C@@H](CC(=O)O)c2cccc(Cc3cccc(C(F)(F)F)c3)c2)c1=O` [Compound 3-89, sodium (S)-3-(3-(1-methyl-4-oxido-2-oxo-1,2-dihydropyridin-3-yl)ureido)-3-(3-(3-(trifluoromethyl)benzyl)phenyl)propanoate], the IC50 is under 20 nM.

The compound `Cc1cn(C)c(=O)c(NC(=O)NC(CC(=O)O)c2cccc(Cc3ccccc3Cl)c2)c1O` (centres unmarked) [Compound 1-24, sodium 3-(3-(2-chlorobenzyl)phenyl)-3-(3-(1,5-dimethyl-4-oxido-2-oxo-1,2-dihydropyridin-3-yl)ureido)propanoate] registered an IC50 of under 200 nM.

For `Cc1ccccc1C(F)(F)c1cccc([C@@H](CC(=O)O)NC(=O)Nc2c(O)ccn(C)c2=O)c1` [Compound 3-66, sodium (R)-3-(3-(difluoro(o-tolyl)methyl)phenyl)-3-(3-(1-methyl-4-oxido-2-oxo-1,2-dihydropyridin-3-yl)ureido)propanoate], the IC50 was over 200 nM.

Compound `Cc1cccc(Oc2cccc([C@H](CC(=O)O)NC(=O)Nc3c(O)ccn(C)c3=O)c2)c1` [Compound 3-84, sodium (S)-3-(3-(1-methyl-4-oxido-2-oxo-1,2-dihydropyridin-3-yl)ureido)-3-(3-(m-tolyloxy)phenyl)propanoate] yielded an IC50 of under 20 nM.

With `Cc1ccccc1Oc1ccc([C@H](CC(=O)O)NC(=O)Nc2c(O)ccn(C)c2=O)cc1` [Compound 3-74, sodium (S)-3-(3-(1-methyl-4-oxido-2-oxo-1,2-dihydropyridin-3-yl)ureido)-3-(4-(o-tolyloxy)phenyl)propanoate], the IC50 is under 20 nM.

On to `Cc1ccccc1Cc1ccc([C@H](CC(=O)O)NC(=O)Nc2c(O)cc(C)n(C)c2=O)s1` [Compound 2-15, sodium (S)-3-(3-(1,6-dimethyl-4-oxido-2-oxo-1,2-dihydropyridin-3-yl)ureido)-3-(5-(2-methylbenzyl)thiophen-2-yl)propanoate], for which the half-inhibitory concentration (IC50) is at most 20 nM.

`Cc1ccc(Cc2cccc([C@H](CC(=O)O)NC(=O)Nc3c(O)ccn(C)c3=O)c2)cc1` [Compound 3-82, sodium (S)-3-(3-(1-methyl-4-oxido-2-oxo-1,2-dihydropyridin-3-yl)ureido)-3-(3-(4-methylbenzyl)phenyl)propanoate] returned an IC50 of under 20 nM.

`Cc1ccc(Oc2cccc([C@H](CC(=O)O)NC(=O)Nc3c(O)ccn(C)c3=O)c2)cc1` [Compound 3-85, sodium (S)-3-(3-(1-methyl-4-oxido-2-oxo-1,2-dihydropyridin-3-yl)ureido)-3-(3-(p-tolyloxy)phenyl)propanoate]: the concentration for half-maximal inhibition (IC50) was under 20 nM.

For the compound `COc1ccccc1Cc1cccc([C@H](CC(=O)O)NC(=O)Nc2c(O)ccn(C)c2=O)c1` [Compound 3-92], the IC50 is under 20 nM.

`Cn1ccc(O)c(NC(=O)N[C@@H](CC(=O)O)c2cccc(Cc3ccccc3F)c2)c1=O` [Compound 3-93, sodium (S)-3-(3-(2-fluorobenzyl)phenyl)-3-(3-(1-methyl-4-oxido-2-oxo-1,2-dihydro-pyridin-3-yl)ureido)propanoate] showed a half-inhibitory concentration (IC50) of under 20 nM.

For `Cc1ccc(F)cc1Cc1cccc([C@H](CC(=O)O)NC(=O)Nc2c(O)ccn(C)c2=O)c1` [Compound 3-70, sodium (S)-3-(3-(5-fluoro-2-methylbenzyl)phenyl)-3-(3-(1-methyl-4-oxido-2-oxo-1,2-dihydropyridin-3-yl)ureido)propanoate], the IC50 is under 20 nM.

As to `COc1ccccc1Oc1cccc([C@H](CC(=O)O)NC(=O)Nc2c(O)ccn(C)c2=O)c1` [Compound 3-68, sodium (S)-3-(3-(2-methoxyphenoxy)phenyl)-3-(3-(1-methyl-4-oxido-2-oxo-1,2-dihydropyridin-3-yl)ureido)propanoate], the IC50 was under 20 nM.

`Cc1ccccc1Cc1cccc([C@H](CC(=O)O)NC(=O)Nc2c(O)ccn(C)c2=O)c1` [Compound 3-81, sodium (S)-3-(3-(1-methyl-4-oxido-2-oxo-1,2-dihydropyridin-3-yl)ureido)-3-(3-(2-methylbenzyl)phenyl)propanoate] displayed an IC50 of under 20 nM.

For the compound `Cc1ccccc1Cc1cccc([C@H](CC(=O)O)NC(=O)Nc2c(O)cc(C)n(C)c2=O)c1` [Compound 2-14, sodium (S)-3-(3-(1,6-dimethyl-4-oxido-2-oxo-1,2-dihydropyridin-3-yl)ureido)-3-(3-(2-methylbenzyl)phenyl)propanoate], the IC50 was under 20 nM.

Compound `Cc1ccc(Cc2ccc([C@H](CC(=O)O)NC(=O)Nc3c(O)ccn(C)c3=O)cc2)cc1` [Compound 3-79, sodium (S)-3-(3-(1-methyl-4-oxido-2-oxo-1,2-dihydropyridin-3-yl)ureido)-3-(4-(4-methylbenzyl)phenyl)propanoate] returned an IC50 of over 200 nM.

In turn, `COc1ccccc1Oc1ccc([C@H](CC(=O)O)NC(=O)Nc2c(O)ccn(C)c2=O)cc1` [Compound 3-72, sodium (S)-3-(4-(2-methoxyphenoxy)phenyl)-3-(3-(1-methyl-4-oxido-2-oxo-1,2-dihydropyridin-3-yl)ureido)propanoate] had an IC50 of under 200 nM.

With `Cc1cccc(C)c1Oc1cccc([C@H](CC(=O)O)NC(=O)Nc2c(O)ccn(C)c2=O)c1` [Compound 3-87, sodium(S)-3-(3-(2,6-dimethylphenoxy)phenyl)-3-(3-(1-methyl-4-oxido-2-oxo-1,2-dihydropyridin-3-yl)ureido)propanoate], the IC50 is under 20 nM.

With `Cn1ccc(O)c(NC(=O)N[C@@H](CC(=O)O)c2cccc(Oc3ccccc3Cl)c2)c1=O` [Compound 3-69, sodium (S)-3-(3-(2-chlorophenoxy)phenyl)-3-(3-(1-methyl-4-oxido-2-oxo-1,2-dihydropyridin-3-yl)ureido)propanoate], the IC50 is under 20 nM.

For the compound `Cc1cn(C)c(=O)c(NC(=O)N[C@@H](CC(=O)O)c2cccc(Oc3ccccc3)c2)c1O` [Compound 1-22, sodium (S)-3-(3-(1,5-dimethyl-4-oxido-2-oxo-1,2-dihydropyridin-3-yl)ureido)-3-(3-phenoxyphenyl)propanoate], the IC50 was under 200 nM.
